We go through 1 compound from BindingDB's records for doi:10.1016/j.bmcl.2007.08.004 (Pfizer, 2007).

For orientation: IC50 means the midpoint of a concentration-inhibition curve. A higher IC50 goes with lower potency.

The target in the assay is T1, 3-hydroxy-3-methylglutaryl-coenzyme A reductase (Rattus norvegicus, UniProt P51639).
T1 sequence (P51639 whole entry): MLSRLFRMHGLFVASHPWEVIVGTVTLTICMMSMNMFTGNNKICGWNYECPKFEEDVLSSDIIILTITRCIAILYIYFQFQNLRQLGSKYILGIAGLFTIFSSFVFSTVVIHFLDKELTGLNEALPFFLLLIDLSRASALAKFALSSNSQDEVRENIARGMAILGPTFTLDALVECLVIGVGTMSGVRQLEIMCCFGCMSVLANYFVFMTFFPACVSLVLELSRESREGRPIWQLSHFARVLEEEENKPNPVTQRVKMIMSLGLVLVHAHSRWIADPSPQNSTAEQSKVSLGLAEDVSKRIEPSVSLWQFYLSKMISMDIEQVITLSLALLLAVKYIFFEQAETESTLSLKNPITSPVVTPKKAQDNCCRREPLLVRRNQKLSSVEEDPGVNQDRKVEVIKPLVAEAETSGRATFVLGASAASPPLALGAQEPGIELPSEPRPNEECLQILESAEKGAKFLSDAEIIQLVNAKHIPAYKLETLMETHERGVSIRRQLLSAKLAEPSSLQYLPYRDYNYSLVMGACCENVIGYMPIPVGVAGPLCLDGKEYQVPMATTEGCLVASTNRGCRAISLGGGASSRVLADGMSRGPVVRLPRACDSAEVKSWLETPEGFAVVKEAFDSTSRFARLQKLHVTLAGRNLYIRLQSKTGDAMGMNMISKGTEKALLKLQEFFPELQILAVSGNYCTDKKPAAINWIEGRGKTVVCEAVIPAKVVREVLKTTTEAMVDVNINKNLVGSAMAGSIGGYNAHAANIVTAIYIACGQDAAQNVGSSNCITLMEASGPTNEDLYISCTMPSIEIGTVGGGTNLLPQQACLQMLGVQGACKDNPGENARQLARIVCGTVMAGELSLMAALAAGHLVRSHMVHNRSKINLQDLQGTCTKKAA
Description: HMG-CoA Reductase In Vitro Assay. The text has this:
Assay for HMG-CoA reductase was based on the conversion of isotopically labeled HMG-CoA to mevalonic acid using rat liver microsomes as enzyme source. The product, [14C]-mevalonic acid was lactonized and separated from excess substrate via an anion ion exchange resin column, and radioactivity was counted on a scintillation counter.

In turn, `CC(C)c1c(C(=O)N2CCc3ccccc3C2)nn(-c2ccc(F)cc2)c1OC[C@@H](O)C[C@@H](O)CC(=O)O` [(3R,5S)-6-{[1-(4-fluorophenyl)-4-(propan-2-yl)-3-(1,2,3,4-tetrahydroisoquinolin-2-ylcarbonyl)-1H-pyrazol-5-yl]oxy}-3,5-dihydroxyhexanoic acid] displayed an IC50 of 0.01 µM.
